Consider 78 compounds from the RepoRT retention time repository (doi:10.1021/acs.analchem.2c02893).

This series in a line: RP, Thermo Scientific Acclaim RSLC 120 C18, 100 × 2.1 mm, 2.2 µm, 30 °C, 0.2 mL/min, estimated dead time 1.1 min; A: 90% water + 10% methanol + 0.01% formic acid + 5 mM ammonium formate, pH 3.61; B: methanol + 0.01% formic acid + 5 mM ammonium formate, pH 3.61; gradient (min/%B) 0/1 1/1 2/39 13/99.9 15/99.9 15.1/1 20.1/1. The settings on record: stereoisomer not certain.
On to `Cc1onc(-c2c(Cl)cccc2Cl)c1C(=O)NC1C(=O)N2C1SC(C)(C)C2C(=O)O` (stereo not drawn) [Dicloxacillin], for which the LC retention time was 7.8 min.
Take `OC(c1ccc(Cl)cc1)(c1ccc(Cl)cc1)C(Cl)(Cl)Cl` [Dicofol]: the LC retention time was 11.8 min.
As for `COP(=O)(OC)OC(C)=CC(=O)N(C)C` [Dicrotophos], the LC retention time is 4.5 min.
Next, `CCN(CC)CCOC(=O)C1(C2CCCCC2)CCCCC1` [Dicycloverine]: 9.99 min; `CCCCCCCCCC[N+](C)(C)CCCCCCCCCC` [Didecyldimethylammonium (DADMAC (C10:C10))]: 12.6 min.
Consider `CC12CCC3=C4CCC(=O)C=C4CCC3C1CCC2(O)CC#N` (stereo not drawn) [Dienogest], for which the LC retention time is 8.09 min.
To `CCN(CC)CCN1c2ccccc2Sc2ccccc21` [Diethazine] belongs 7.76 min; to `CCOc1ccc(NC(=O)OC(C)C)cc1OCC` [Diethofencarb], 9.04 min.
To `CC1COC(Cn2cncn2)(c2ccc(Oc3ccc(Cl)cc3)cc2Cl)O1` (stereo not drawn) [Difenoconazole] belongs 11.6 min; to `COc1ccc(Oc2ccc(NC(=O)N(C)C)cc2)cc1` [Difenoxuron], 8.43 min; to `Cn1c(-c2ccccc2)cc(-c2ccccc2)[n+]1C` [Difenzoquat (Ion 1+)], 5.21 min.
Next, `CN1CCN(c2cc3c(cc2F)c(=O)c(C(=O)O)cn3-c2ccc(F)cc2)CC1` [Difloxacin]: 4.96 min; `O=C(NC(=O)c1c(F)cccc1F)Nc1ccc(Cl)cc1` [Diflubenzuron]: 10.6 min; `O=C(Nc1ccc(F)cc1F)c1cccnc1Oc1cccc(C(F)(F)F)c1` [Diflufenican]: 11.7 min.
Consider `CC(=NNC(=O)Nc1cc(F)cc(F)c1)c1ncccc1C(=O)O` [Diflufenzopyr], for which the LC retention time was 6.22 min.
Next, `COCCOCCOC` [Diglyme]: 3.9 min; `CC1(C)OCC2OC3(C(=O)O)OC(C)(C)OC3C2O1` (stereo not drawn) [Dikegulac]: 4.76 min.
Next, `COc1ccc(C2Sc3ccccc3N(CCN(C)C)C(=O)C2O)cc1` (stereo not drawn) [Diltiazem-Deacetyl]: 6.41 min.
To `CNCCN1C(=O)C(OC(C)=O)C(c2ccc(OC)cc2)Sc2ccccc21` (stereo not drawn) [Diltiazem-Nor] belongs 7.21 min.
On to `COc1ccc(C2Sc3ccccc3N(CCN(C)C)C(=O)C2OC(C)=O)cc1` (stereo not drawn) [Diltiazem], for which the LC retention time was 7.18 min.
Turning to `CN(C)C(=O)Nc1ccc(-n2nc(C(C)(C)C)oc2=O)c(Cl)c1` [Dimefuron], the LC retention time was 8.76 min.
To `COCCN(C(=O)CS(=O)(=O)O)c1c(C)cccc1C` [Dimethachlor-ESA] belongs 5.54 min; to `COCCN(C(=O)CCl)c1c(C)cccc1C` [Dimethachlor], 8.58 min.
For the compound `COCC(C)N(C(=O)CS(=O)(=O)O)c1c(C)csc1C` (stereo not drawn) [Dimethenamide-ESA], the LC retention time is 6.28 min.
To `COCC(C)N(C(=O)C(=O)O)c1c(C)csc1C` (stereo not drawn) [Dimethenamide-OXA] belongs 6.36 min; to `COCC(C)N(C(=O)CCl)c1c(C)csc1C` (stereo not drawn) [Dimethenamide], 9.26 min.
Next, `CC1=C(C)S(=O)(=O)CCS1(=O)=O` [Dimethipin]: 3.73 min; `CCCCc1c(C)nc(N(C)C)[nH]c1=O` [Dimethirimol]: 7.7 min; `CNC(=O)CSP(=S)(OC)OC` [Dimethoate]: 5.23 min.
Next, `CCN(CC)CC(C)(C)COC(=O)c1ccc(N)cc1` [Dimethocain]: 4.24 min.
In the case of `COc1ccc(C(=CC(=O)N2CCOCC2)c2ccc(Cl)cc2)cc1OC` [Dimethomorph], the LC retention time was 9.22 min.
On to `CN(C)c1ccccc1` [Dimethylanilin (N.N-)], for which the LC retention time was 6.26 min.
In the case of `Cc1ccc(N)c(C)c1` [Dimethylaniline (2.4-) (Metabolite Amitraz)], the LC retention time was 5.04 min.
Consider `CCCCCCCCCCCCCCCCCC[N+](C)(C)CCCCCCCCCCCCCCCCCC` [Dimethyldioctadecylammonium], for which the LC retention time was 15 min.
Next, `COP(=O)(OC)OC(=CCl)c1ccc(Cl)cc1Cl` [Dimethylvinphos]: 9.86 min; `CC(C1=C(CCN(C)C)Cc2ccccc21)c1ccccn1` (stereo not drawn) [Dimetindene]: 6.86 min; `CC(CN1c2ccccc2Sc2ccc(S(=O)(=O)N(C)C)cc21)N(C)C` (stereo not drawn) [Dimetotiazine]: 7.01 min.
To `Cc1ncc([N+](=O)[O-])n1C` [Dimetridazole] belongs 4.27 min; to `CNC(=O)C(=NOC)c1ccccc1COc1cc(C)ccc1C` [Dimoxystrobin], 10.7 min; to `CC(C)(C)C(O)C(=Cc1ccc(Cl)cc1Cl)n1cncn1` (stereo not drawn) [Diniconazole], 11.5 min.
Take `CC=CC(=O)Oc1c(C(C)CCCCCC)cc([N+](=O)[O-])cc1[N+](=O)[O-]` (stereo not drawn) [Dinocap]: the LC retention time was 13.1 min.
Next, `CNC(=N[N+](=O)[O-])NCC1CCOC1` (stereo not drawn) [Dinotefuran]: 3.59 min; `CC1CCC2(OC1)OC1CC3C4CC=C5CC(O)CCC5(C)C4CCC3(C)C1C2C` (stereo not drawn) [Diosgenin]: 15.1 min; `CNC(=O)Oc1ccccc1C1OCCO1` [Dioxacarb]: 5.16 min.
With `CCOP(=S)(OCC)SC1OCCOC1SP(=S)(OCC)OCC` (stereo not drawn) [Dioxathion], the LC retention time was 12.1 min.
Next, `CCNC(C)C(O)c1ccc(O)c(O)c1` (stereo not drawn) [Dioxethedrin]: 1.99 min; `CCCc1nn(C)c2c(=O)[nH]c(-c3cc(C(=O)CN4CCN(CC)C(=O)C4=O)ccc3OCC)nc12` [Dioxohongdenafil]: 8.18 min.
To `O=C1c2ccccc2C(=O)C1C(=O)C(c1ccccc1)c1ccccc1` [Diphacinone] belongs 8.6 min.
To `CN(C)C(=O)C(c1ccccc1)c1ccccc1` [Diphenamide] belongs 8.57 min; to `CN(C)CCOC(c1ccccc1)c1ccccc1` [Diphenhydramine], 6.63 min.
As for `CCOC(=O)C1(c2ccccc2)CCN(CCC(C#N)(c2ccccc2)c2ccccc2)CC1` [Diphenoxylate], the LC retention time is 10.4 min.
Take `CC(C)CC(C)Nc1ccc(Nc2ccccc2)cc1` (stereo not drawn) [Diphenylamin-4-(dimethylbutylamino) (6PPD)]: the LC retention time was 9.92 min.
Next, `c1ccc(Nc2ccccc2)cc1` [Diphenylamine]: 10.1 min; `CN1CCC(OC(c2ccccc2)c2ccccc2)CC1` [Diphenylpyraline]: 7.23 min; `Cn1c(=O)c2c(ncn2CC(O)CO)n(C)c1=O` (stereo not drawn) [Diprophylline]: 3.76 min.
As for `OCCN(CCO)c1nc(N2CCCCC2)c2nc(N(CCO)CCO)nc(N3CCCCC3)c2n1` [Dipyridamole], the LC retention time was 9.36 min.
`Cc1c(N(C)CS(=O)(=O)O)c(=O)n(-c2ccccc2)n1C` [Dipyron (Metamizol)]: the LC retention time was 4.49 min.
On to `CC(C)N(CCC(C(N)=O)(c1ccccc1)c1ccccn1)C(C)C` (stereo not drawn) [Disopyramide], for which the LC retention time was 4.74 min.
On to `CCOP(=S)(OCC)SCCS(=O)(=O)CC` [Disulfoton-sulfone], for which the LC retention time was 8.02 min.
Regarding `CCOP(=S)(OCC)SCCS(=O)CC` (stereo not drawn) [Disulfoton-sulfoxide], the LC retention time was 7.86 min.
Next, `CCOP(=S)(OCC)SCCSCC` [Disulfoton]: 11.5 min; `CCOP(=S)(OCC)N1C(=O)c2ccccc2C1=O` [Ditalimfos]: 10.2 min.
`CSC(=O)c1c(C(F)F)nc(C(F)(F)F)c(C(=O)SC)c1CC(C)C` [Dithiopyr]: the LC retention time is 11.7 min.
Next, `CN(C)C(=O)Nc1ccc(Cl)c(Cl)c1` [Diuron]: 8.64 min; `CC(CN1CCN(CCOCCO)CC1)CN1c2ccccc2Sc2ccccc21` (stereo not drawn) [Dixyrazine]: 9.08 min; `CC(CCc1ccc(O)cc1)NCCc1ccc(O)c(O)c1` (stereo not drawn) [Dobutamine]: 4.21 min.
To `CCCCCCCCCCCCN=C(N)N` [Dodine (Ion1+)] belongs 11.2 min.
To `O=c1[nH]c2ccccc2n1CCCN1CCC(n2c(=O)[nH]c3cc(Cl)ccc32)CC1` [Domperidone] belongs 6.27 min; to `COc1cc2c(cc1OC)C(=O)C(CC1CCN(Cc3ccccc3)CC1)C2` (stereo not drawn) [Donepezil], 5.81 min; to `CCNC1CC(C)S(=O)(=O)c2sc(S(N)(=O)=O)cc21` (stereo not drawn) [Dorzolamide], 3.19 min.
As to `CN(C)CCC=C1c2ccccc2CSc2ccccc21` [Dosulepin], the LC retention time is 7.61 min.
For `CCN1CC(CCN2CCOCC2)C(c2ccccc2)(c2ccccc2)C1=O` (stereo not drawn) [Doxapram], the LC retention time was 6.23 min.
To `CNCCC=C1c2ccccc2COc2ccccc21` [Doxepin-Nor] belongs 7.03 min.
Next, `CN(C)CCC=C1c2ccccc2COc2ccccc21` [Doxepin]: 7.01 min; `CC1c2cccc(O)c2C(O)=C2C(=O)C3(O)C(O)=C(C(N)=O)C(=O)C(N(C)C)C3C(O)C21` (stereo not drawn) [Doxycycline]: 6.2 min; `CN(C)CCOC(C)(c1ccccc1)c1ccccn1` (stereo not drawn) [Doxylamine]: 5.18 min.
For the compound `Cc1[nH]oc(=O)c1N=Nc1ccccc1Cl` [Drazoxolon], the LC retention time is 10.3 min.
Regarding `CCN(CC)CCOC(=O)C(c1ccccc1)C1CCCCC1` (stereo not drawn) [Drofenine], the LC retention time was 9.19 min.
